Common to all, as to experiment: Enzyme Inhibition Assay
Assay [1] addresses Bacterial leucyl aminopeptidase (Vibrio proteolyticus, UniProt Q01693).
The target in assay [2] is T1, Leukotriene A-4 hydrolase (Homo sapiens, UniProt P09960).
T1 sequence (P09960 whole entry): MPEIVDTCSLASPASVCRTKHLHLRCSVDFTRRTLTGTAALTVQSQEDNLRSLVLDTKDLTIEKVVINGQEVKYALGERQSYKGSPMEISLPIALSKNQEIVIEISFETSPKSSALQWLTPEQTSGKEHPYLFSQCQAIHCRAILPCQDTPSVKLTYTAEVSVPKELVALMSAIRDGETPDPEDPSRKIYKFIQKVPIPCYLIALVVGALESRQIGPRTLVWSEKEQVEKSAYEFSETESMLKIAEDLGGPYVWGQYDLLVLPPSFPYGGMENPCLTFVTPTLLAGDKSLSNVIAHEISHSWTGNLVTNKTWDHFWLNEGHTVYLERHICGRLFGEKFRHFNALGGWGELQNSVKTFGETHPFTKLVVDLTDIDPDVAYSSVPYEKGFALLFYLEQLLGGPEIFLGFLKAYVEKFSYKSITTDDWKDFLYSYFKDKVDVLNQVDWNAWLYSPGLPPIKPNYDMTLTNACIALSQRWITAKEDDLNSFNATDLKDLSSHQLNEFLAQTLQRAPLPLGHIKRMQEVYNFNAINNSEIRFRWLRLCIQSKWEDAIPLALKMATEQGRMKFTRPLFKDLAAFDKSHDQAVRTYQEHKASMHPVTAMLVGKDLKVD

The target in the next assay is T2, Aminopeptidase N (Sus scrofa, UniProt P15145).
T2 sequence (P15145 whole entry): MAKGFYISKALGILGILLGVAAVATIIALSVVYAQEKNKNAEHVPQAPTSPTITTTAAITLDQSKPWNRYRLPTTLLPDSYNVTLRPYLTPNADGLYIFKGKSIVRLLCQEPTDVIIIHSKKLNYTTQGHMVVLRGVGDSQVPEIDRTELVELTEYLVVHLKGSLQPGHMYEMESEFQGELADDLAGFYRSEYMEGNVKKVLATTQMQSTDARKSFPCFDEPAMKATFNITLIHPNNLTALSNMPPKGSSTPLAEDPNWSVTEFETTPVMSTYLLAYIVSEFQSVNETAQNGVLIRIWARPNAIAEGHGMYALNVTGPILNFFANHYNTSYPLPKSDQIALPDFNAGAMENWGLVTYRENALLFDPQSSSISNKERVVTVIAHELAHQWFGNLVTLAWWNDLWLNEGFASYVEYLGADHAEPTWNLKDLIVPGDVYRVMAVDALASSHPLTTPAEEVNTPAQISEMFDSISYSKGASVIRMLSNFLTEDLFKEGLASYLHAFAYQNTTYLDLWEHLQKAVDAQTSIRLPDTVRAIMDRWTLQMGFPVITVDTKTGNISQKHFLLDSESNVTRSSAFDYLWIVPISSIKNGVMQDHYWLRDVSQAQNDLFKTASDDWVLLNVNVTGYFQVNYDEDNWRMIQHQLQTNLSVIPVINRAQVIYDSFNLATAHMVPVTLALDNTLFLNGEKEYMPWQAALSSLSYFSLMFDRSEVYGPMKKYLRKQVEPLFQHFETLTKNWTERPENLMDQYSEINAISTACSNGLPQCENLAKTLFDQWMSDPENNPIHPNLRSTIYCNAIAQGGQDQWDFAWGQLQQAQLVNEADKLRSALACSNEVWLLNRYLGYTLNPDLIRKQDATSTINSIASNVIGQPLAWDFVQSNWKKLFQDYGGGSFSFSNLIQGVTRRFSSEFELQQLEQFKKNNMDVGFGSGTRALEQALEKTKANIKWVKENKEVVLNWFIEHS

pIC50, pKi: −log10 of the molar value. Counter-ions that a name gives are not always drawn. Where only a bound is given, the exact number is not on record here.

Sequence of Bacterial leucyl aminopeptidase (Q01693 whole entry): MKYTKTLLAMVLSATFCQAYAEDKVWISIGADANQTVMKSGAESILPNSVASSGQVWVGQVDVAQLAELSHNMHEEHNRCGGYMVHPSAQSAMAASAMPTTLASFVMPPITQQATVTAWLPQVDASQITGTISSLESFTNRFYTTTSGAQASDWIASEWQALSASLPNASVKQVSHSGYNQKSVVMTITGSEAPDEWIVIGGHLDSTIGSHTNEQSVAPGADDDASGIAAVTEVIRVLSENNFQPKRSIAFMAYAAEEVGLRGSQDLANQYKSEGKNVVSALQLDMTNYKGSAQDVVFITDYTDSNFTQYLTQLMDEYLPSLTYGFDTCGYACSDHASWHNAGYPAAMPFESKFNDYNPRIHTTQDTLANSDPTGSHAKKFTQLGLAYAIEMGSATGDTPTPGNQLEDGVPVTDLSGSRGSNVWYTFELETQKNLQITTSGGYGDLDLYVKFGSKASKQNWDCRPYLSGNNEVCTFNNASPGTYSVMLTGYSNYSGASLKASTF

As for `O=C1CCc2ccccc2C1` [1,2,3,4-tetrahydronaphthalen-2-one], the pIC50 (in assay [1]; in assay [2]; at Aminopeptidase N) was less than 3.00 in each case.

With `CC(=O)C1Cc2ccccc2CC1N` (stereo not given) [1-(3-amino-1,2,3,4-tetrahydronaphthalen-2-yl)ethan-1-one hydrochloride], the pIC50 (usually the negative decadic logarithm of the IC50, by convention in mol/L) in assay [1] (pH 8, 30 °C) was 3.30; in assay [2], 3.12; at Aminopeptidase N, less than 3.00.

In the case of `NN1Cc2ccccc2CC1=O` [2-amino-1,2,3,4-tetrahydroisoquinolin-3-one], the negative-log IC50 (pIC50) in assay [1] is 3.13; in assay [2], less than 3.00; against Aminopeptidase N it was less than 3.00.

As to `O=C1Cc2ccccc2CN1O` [2-hydroxy-1,2,3,4-tetrahydroisoquinolin-3-one], in assay [1], the pKi – broadly, −log10 of the Ki, conventionally taken in molar units – is 5.40. The pIC50 (in assay [2]; against Aminopeptidase N) was less than 3.00 throughout.

In the case of `O=C1Cc2ccccc2CO1` [3,4-dihydro-1H-2-benzopyran-3-one], the pIC50 (in assay [1]; in assay [2]; at Aminopeptidase N) was less than 3.00 throughout.

Take `O=C1Cc2ccccc2CS1` [3,4-dihydro-1H-2-benzothiopyran-3-one]: the pKi in assay [1] is 5.40. Besides, the negative-log IC50 (pIC50) (in assay [2]; at Aminopeptidase N) was less than 3.00 each time.

As for `NC1Cc2ccccc2CC1=O` (stereo not given) [3-amino-1,2,3,4-tetrahydronaphthalen-2-one hydrochloride], the pIC50 was 3.89 in assay [1] (pH 8, 30 °C) and less than 3.00 in assay [2].

For the molecule `NC1Cc2ccccc2CC1P(=O)(O)O` (stereo not given) [3-amino-1,2,3,4-tetrahydronaphthalene-2-phosphonic acid hydrochloride], the pIC50 is 3.82 in assay [1], less than 3.00 in assay [2] and 3.30 on Aminopeptidase N.

The molecule `NC1Cc2ccccc2NC1=O` (stereo not given) [3-amino-1,2,3,4-tetrahydroquinolin-2-one hydrochloride] showed a pKi in assay [1] of 4.10. Besides, the pIC50 (in assay [2]; against Aminopeptidase N) was less than 3.00 each time.

For the molecule `NC1Cc2ccccc2CC1C(=O)NO` (stereo not given) [3-amino-N-hydroxy-1,2,3,4-tetrahydronaphthalene-2-carboxamide hydrochloride], the pKi (in assay [1]; on Aminopeptidase N) was 5.40 throughout. In addition, the pIC50 in assay [2] is less than 3.00.

On to `NC1CCc2ccccc2C1` [(2S)-1,2,3,4-Tetrahydro-naphthalen-2-ylamine], for which the pIC50 was less than 3.00 in assay [1] (pH 8, 30 °C); less than 3.00 in assay [2]; less than 3.00 against Aminopeptidase N.

Regarding `CO/N=C1/Cc2ccccc2CC1N` (stereo not given) [(3Z)-3-(methoxyimino)-1,2,3,4-tetrahydronaphthalen-2-amine hydrochloride], the negative-log IC50 (pIC50) in assay [1] (pH 8, 30 °C) was 3.10; in assay [2] it was less than 3.00. The molecule further showed a pKi at Aminopeptidase N of 3.89.

For `NC1Cc2ccccc2C/C1=N/OCCc1ccccc1` (stereo not given) [(3Z)-3-[(2-phenylethoxy)imino]-1,2,3,4-tetrahydronaphthalen-2-amine hydrochloride], the pIC50 was 3.77 in assay [1] (pH 8, 30 °C) and 3.30 in assay [2]. Further, the negative logarithm of the Ki (pKi) on Aminopeptidase N was 3.59.

`NC1Cc2ccccc2C/C1=N/OCCCc1ccccc1` (stereo not given) [(3Z)-3-[(3-phenylpropoxy)imino]-1,2,3,4-tetrahydronaphthalen-2-amine hydrochloride] showed a pIC50 in assay [1] (pH 8, 30 °C) of 3.52. For the same molecule, the pKi in assay [2] is 5.22; on Aminopeptidase N, 3.96.

Regarding `NC1Cc2ccccc2C/C1=N/OCCCCc1ccccc1` (stereo not given) [(3Z)-3-[(4-phenylbutoxy)imino]-1,2,3,4-tetrahydronaphthalen-2-amine hydrochloride], the pIC50 in assay [1] (pH 8, 30 °C) is 3.96. The values for the pKi (in assay [2]; at Aminopeptidase N) were 5.10 and 4.26, respectively.

Take `NC1Cc2ccccc2C/C1=N/OCc1ccccc1` (stereo not given) [(3Z)-3-[(benzyloxy)imino]-1,2,3,4-tetrahydronaphthalen-2-amine hydrochloride]: the pIC50 in assay [1] (pH 8, 30 °C) was 3.68; in assay [2], less than 3.00; on Aminopeptidase N, 3.10.

In assay [1] (pH 8, 30 °C), `NC1Cc2ccccc2C/C1=N/OCCCCCc1ccccc1` (stereo not given) [(3Z)-3-{[(5-phenylpentyl)oxy]imino}-1,2,3,4-tetrahydronaphthalen-2-amine hydrochloride] showed a pIC50 of 3.89. Besides, the pKi in assay [2] was 4.52; at Aminopeptidase N, 4.10.

The values above are taken from BindingDB's records for doi:10.1016/j.bmc.2006.06.050 (Enscmu, 2006).
